ChEMBL document CHEMBL4507298 (2021)

How the values were obtained:
[1] = molecular target: Neuronal acetylcholine receptor; alpha4/beta2 (Homo sapiens) (UniProt P17787+P43681); assay: N (neuronal) (alpha -BGTX-insensitive) (alpha 4 beta 2) CEREP ligand profiling; assay type: protein-complex assay; settings: Compound concentration 10.0 uM
[2] = molecular target: Bone morphogenetic protein receptor type-1A (Homo sapiens) (UniProt P36894); settings: Compound concentration 1000.0 nM
[3] = molecular target: Dual specificity mitogen-activated protein kinase kinase 4 (Homo sapiens) (UniProt P45985); settings: Compound concentration 1000.0 nM
[4] = molecular target: SRSF protein kinase 2 (Homo sapiens) (UniProt P78362); settings: Compound concentration 1000.0 nM
[5] = molecular target: Serine/threonine-protein kinase WNK4 (Homo sapiens) (UniProt Q96J92); settings: Compound concentration 1000.0 nM
[6] = system: Leucine-rich repeat serine/threonine-protein kinase 2 (Homo sapiens), Q5S007 [G2019S]; settings: Compound concentration 1000.0 nM
Sequence of Leucine-rich repeat serine/threonine-protein kinase 2 (Homo sapiens), Q5S007 [G2019S] (Q5S007 whole entry G2019S): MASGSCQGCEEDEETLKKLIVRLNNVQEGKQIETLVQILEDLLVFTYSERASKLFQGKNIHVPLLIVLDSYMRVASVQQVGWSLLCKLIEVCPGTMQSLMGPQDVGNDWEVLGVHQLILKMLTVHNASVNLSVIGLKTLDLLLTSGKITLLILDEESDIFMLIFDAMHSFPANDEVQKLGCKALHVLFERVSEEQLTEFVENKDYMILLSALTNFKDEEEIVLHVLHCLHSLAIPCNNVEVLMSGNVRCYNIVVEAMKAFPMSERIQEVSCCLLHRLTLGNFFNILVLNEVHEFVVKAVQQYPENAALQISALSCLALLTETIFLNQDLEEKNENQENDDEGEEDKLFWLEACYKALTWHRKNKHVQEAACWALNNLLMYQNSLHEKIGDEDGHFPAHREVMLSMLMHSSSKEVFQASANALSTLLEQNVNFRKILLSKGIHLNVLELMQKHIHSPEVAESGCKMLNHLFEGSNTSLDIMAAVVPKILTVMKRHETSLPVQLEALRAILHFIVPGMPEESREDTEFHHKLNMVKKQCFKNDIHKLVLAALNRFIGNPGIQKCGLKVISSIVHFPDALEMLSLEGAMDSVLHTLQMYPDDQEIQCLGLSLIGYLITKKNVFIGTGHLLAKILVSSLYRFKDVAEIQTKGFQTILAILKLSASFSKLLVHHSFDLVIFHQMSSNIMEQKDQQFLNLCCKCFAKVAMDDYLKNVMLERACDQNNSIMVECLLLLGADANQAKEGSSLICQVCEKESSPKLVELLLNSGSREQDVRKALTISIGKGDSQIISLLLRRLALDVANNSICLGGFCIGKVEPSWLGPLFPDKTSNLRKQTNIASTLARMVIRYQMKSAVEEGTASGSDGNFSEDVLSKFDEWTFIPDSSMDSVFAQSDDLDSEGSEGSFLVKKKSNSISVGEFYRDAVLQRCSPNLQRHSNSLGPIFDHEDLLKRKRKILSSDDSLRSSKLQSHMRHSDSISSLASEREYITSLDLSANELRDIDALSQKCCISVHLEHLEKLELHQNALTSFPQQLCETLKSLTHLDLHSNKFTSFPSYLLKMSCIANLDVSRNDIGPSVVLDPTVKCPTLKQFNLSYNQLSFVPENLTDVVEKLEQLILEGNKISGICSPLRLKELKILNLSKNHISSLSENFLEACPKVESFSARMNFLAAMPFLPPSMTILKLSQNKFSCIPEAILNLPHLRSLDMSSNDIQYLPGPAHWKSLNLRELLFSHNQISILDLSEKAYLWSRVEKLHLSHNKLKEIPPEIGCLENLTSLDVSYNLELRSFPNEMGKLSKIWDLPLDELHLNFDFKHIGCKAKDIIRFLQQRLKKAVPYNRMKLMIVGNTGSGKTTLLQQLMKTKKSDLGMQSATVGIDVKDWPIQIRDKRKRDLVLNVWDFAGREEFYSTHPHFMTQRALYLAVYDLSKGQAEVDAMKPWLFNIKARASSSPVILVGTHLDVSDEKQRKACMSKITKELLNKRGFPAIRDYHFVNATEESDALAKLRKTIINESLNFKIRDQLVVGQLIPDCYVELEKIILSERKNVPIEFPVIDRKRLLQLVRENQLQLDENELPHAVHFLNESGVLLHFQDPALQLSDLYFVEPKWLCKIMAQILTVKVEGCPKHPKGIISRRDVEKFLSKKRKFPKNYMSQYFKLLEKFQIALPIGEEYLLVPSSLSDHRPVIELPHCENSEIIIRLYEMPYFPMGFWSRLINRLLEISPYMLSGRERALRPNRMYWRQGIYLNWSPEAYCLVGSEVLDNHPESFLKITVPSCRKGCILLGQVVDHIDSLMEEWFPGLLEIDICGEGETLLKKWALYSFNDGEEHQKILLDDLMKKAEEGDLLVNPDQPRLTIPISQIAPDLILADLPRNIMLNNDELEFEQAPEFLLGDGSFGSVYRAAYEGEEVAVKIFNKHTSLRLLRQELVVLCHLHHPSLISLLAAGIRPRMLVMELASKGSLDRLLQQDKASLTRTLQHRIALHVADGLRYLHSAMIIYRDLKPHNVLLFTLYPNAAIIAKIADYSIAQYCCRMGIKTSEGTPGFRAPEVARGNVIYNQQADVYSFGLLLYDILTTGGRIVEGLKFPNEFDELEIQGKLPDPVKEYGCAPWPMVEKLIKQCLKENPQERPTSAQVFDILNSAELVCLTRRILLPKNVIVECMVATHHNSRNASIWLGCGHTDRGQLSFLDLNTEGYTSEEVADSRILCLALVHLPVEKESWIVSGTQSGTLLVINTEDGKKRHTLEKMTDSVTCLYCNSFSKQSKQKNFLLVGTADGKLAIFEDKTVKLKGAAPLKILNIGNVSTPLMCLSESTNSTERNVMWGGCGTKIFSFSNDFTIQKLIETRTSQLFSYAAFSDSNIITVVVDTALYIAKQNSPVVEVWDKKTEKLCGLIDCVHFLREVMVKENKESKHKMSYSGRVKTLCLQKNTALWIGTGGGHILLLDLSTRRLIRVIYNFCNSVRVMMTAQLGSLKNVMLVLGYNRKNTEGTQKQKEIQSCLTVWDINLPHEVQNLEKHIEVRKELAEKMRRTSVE

Phosphodiesterase 3 = Phosphodiesterase 3 (Homo sapiens, UniProt Q14432+Q13370); assay: PDE3 (h) CEREP ligand profiling; assay type: protein assay
[7] = molecular target: Phosphatidylinositol 5-phosphate 4-kinase type-2 beta (Homo sapiens) (UniProt P78356); settings: Compound concentration 1000.0 nM
[8] = molecular target: Cyclin-dependent kinase 4 (Homo sapiens) (UniProt P11802); settings: Compound concentration 1000.0 nM
[9] = molecular target: Serine/threonine-protein kinase 32A (Homo sapiens) (UniProt Q8WU08); settings: Compound concentration 1000.0 nM
[10] = molecular target: Phosphodiesterase 4 (Homo sapiens) (UniProt P27815+Q08499+Q07343+Q08493); assay: PDE4 (h) CEREP ligand profiling; assay type: protein assay; settings: Compound concentration 10.0 uM
[11] = molecular target: Calcium/calmodulin-dependent protein kinase type II subunit alpha (Homo sapiens) (UniProt Q9UQM7); assay: CaMK2alpha (h) CEREP ligand profiling; settings: Compound concentration 10.0 uM
[12] = molecular target: Angiotensin-converting enzyme (Homo sapiens) (UniProt P12821); assay: ACE (h) CEREP ligand profiling; settings: Compound concentration 10.0 uM
[13] = molecular target: Tyrosine-protein kinase JAK2 (Homo sapiens) (UniProt O60674); settings: Compound concentration 1000.0 nM
[14] = molecular target: MAP/microtubule affinity-regulating kinase 3 (Homo sapiens) (UniProt P27448); settings: Compound concentration 1000.0 nM
[15] = molecular target: Sodium-dependent serotonin transporter (Homo sapiens) (UniProt P31645); assay: 5-HT transporter (h) CEREP ligand profiling; settings: Compound concentration 10.0 uM
[16] = molecular target: Serine/threonine-protein kinase Sgk1 (Homo sapiens) (UniProt O00141); settings: Compound concentration 1000.0 nM
[17] = molecular target: Serine/threonine-protein kinase SIK1 (Homo sapiens) (UniProt P57059); settings: Compound concentration 1000.0 nM
[18] = molecular target: Substance-P receptor (Homo sapiens) (UniProt P25103); assay: NK1 (h) CEREP ligand profiling; settings: Compound concentration 10.0 uM
Sequence of Substance-P receptor (Homo sapiens) (P25103 whole entry): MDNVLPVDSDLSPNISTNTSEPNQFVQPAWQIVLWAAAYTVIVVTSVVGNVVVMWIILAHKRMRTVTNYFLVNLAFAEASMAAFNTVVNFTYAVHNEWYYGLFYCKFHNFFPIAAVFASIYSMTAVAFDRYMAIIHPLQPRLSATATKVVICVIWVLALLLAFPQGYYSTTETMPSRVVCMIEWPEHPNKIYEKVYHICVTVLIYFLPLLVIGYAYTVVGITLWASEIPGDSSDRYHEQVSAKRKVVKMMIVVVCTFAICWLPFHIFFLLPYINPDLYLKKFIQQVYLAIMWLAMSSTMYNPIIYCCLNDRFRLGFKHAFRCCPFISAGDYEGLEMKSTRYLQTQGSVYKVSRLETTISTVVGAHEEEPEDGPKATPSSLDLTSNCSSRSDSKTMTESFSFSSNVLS

[19] = molecular target: Calcium/calmodulin-dependent protein kinase type IV (Homo sapiens) (UniProt Q16566); settings: Compound concentration 1000.0 nM
Sequence of Calcium/calmodulin-dependent protein kinase type IV (Homo sapiens) (Q16566 whole entry): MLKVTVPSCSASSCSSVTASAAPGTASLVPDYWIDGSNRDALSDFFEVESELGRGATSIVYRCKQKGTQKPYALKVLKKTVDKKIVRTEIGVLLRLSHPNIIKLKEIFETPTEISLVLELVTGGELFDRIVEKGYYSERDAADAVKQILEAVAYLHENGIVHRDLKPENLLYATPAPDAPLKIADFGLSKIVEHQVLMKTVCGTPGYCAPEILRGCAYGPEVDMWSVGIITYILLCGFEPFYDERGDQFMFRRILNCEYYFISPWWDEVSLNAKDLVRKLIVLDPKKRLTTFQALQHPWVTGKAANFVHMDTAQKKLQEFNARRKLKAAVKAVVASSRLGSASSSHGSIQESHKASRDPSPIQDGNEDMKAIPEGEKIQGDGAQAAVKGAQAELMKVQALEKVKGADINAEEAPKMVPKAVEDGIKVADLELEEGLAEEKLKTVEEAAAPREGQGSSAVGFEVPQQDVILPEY

[20] = molecular target: Glucocorticoid receptor (Homo sapiens) (UniProt P04150); assay: GR (h) CEREP ligand profiling; settings: Compound concentration 10.0 uM
[21] = molecular target: Cyclin-dependent kinase-like 2 (Homo sapiens) (UniProt Q92772); settings: Compound concentration 1000.0 nM
[22] = molecular target: SRSF protein kinase 1 (Homo sapiens) (UniProt Q96SB4); settings: Compound concentration 1000.0 nM
[23] = molecular target: Cyclin-dependent kinase 3 (Homo sapiens) (UniProt Q00526); settings: Compound concentration 1000.0 nM
Sequence of Cyclin-dependent kinase 3 (Homo sapiens) (Q00526 whole entry, looked up): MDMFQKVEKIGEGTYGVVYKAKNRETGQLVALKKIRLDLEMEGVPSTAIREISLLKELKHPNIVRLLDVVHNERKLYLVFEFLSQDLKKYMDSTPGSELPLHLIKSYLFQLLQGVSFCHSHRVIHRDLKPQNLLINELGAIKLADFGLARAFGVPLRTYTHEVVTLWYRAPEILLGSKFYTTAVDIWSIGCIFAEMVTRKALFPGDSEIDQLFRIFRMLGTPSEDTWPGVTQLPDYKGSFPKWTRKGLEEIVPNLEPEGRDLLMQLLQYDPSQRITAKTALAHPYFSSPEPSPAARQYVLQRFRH

[24] = molecular target: 1-phosphatidylinositol 3-phosphate 5-kinase (Homo sapiens) (UniProt Q9Y2I7); settings: Compound concentration 1000.0 nM
[25] = molecular target: Mitogen-activated protein kinase kinase kinase 7 (Homo sapiens) (UniProt O43318); settings: Compound concentration 1000.0 nM
Sequence of Mitogen-activated protein kinase kinase kinase 7 (Homo sapiens) (O43318 whole entry): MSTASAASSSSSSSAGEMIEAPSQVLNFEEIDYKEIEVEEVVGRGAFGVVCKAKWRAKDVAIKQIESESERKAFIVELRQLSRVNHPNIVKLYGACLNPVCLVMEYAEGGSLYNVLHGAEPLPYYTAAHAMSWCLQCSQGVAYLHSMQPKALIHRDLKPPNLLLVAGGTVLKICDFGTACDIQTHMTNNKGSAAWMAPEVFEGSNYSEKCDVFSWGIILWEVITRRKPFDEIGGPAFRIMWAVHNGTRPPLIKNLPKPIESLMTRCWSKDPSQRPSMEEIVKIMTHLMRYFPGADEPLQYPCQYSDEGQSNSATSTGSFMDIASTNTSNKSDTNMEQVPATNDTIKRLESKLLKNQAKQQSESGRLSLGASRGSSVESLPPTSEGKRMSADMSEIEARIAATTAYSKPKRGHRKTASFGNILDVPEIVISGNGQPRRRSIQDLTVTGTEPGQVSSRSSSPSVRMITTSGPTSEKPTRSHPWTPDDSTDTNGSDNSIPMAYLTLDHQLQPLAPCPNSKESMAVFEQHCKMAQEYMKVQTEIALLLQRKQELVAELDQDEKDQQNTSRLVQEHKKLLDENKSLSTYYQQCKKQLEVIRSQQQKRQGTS

[26] = molecular target: Serine/threonine-protein kinase PLK4 (Homo sapiens) (UniProt O00444); settings: Compound concentration 1000.0 nM
[27] = molecular target: Serine/threonine-protein kinase 33 (Homo sapiens) (UniProt Q9BYT3); settings: Compound concentration 1000.0 nM
[28] = molecular target: Activin receptor type-1-like (Homo sapiens) (UniProt P37023); settings: Compound concentration 1000.0 nM
[29] = molecular target: ALK tyrosine kinase receptor (Homo sapiens) (UniProt Q9UM73); settings: Compound concentration 1000.0 nM
[30] = molecular target: Bone morphogenetic protein receptor type-2 (Homo sapiens) (UniProt Q13873); settings: Compound concentration 1000.0 nM
[31] = system: Tyrosine-protein kinase ABL1 (Homo sapiens), P00519 [M351T]; settings: Compound concentration 1000.0 nM
[32] = molecular target: Tyrosine-protein kinase Fer (Homo sapiens) (UniProt P16591); settings: Compound concentration 1000.0 nM
[33] = molecular target: T1, 5-hydroxytryptamine receptor 3A (Homo sapiens) (UniProt P46098); assay: 5-HT3 (h) CEREP ligand profiling; settings: Compound concentration 10.0 uM
T1 sequence (whole entry): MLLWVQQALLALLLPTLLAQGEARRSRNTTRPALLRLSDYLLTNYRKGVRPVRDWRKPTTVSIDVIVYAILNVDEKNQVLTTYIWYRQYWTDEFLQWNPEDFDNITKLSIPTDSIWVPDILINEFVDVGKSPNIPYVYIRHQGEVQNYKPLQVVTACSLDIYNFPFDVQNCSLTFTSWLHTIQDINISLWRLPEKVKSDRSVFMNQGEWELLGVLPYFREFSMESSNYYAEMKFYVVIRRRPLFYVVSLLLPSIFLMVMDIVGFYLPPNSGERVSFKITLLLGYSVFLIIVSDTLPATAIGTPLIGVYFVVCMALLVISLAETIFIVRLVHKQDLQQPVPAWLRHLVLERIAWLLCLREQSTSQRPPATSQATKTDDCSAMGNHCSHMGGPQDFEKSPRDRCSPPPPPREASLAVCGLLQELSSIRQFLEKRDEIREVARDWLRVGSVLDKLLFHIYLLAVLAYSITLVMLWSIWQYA

[34] = molecular target: Tumor necrosis factor (Homo sapiens) (UniProt P01375); assay: TNF-alpha (h) CEREP ligand profiling; settings: Compound concentration 10.0 uM
Sequence of Tumor necrosis factor (Homo sapiens) (P01375 whole entry): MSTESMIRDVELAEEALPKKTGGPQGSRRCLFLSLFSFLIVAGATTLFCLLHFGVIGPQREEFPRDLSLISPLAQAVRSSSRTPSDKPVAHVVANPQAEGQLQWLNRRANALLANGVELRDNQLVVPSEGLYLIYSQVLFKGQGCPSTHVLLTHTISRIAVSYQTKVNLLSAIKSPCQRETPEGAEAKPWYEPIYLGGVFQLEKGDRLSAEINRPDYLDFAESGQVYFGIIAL

[35] = molecular target: Serine/threonine-protein kinase LATS2 (Homo sapiens) (UniProt Q9NRM7); settings: Compound concentration 1000.0 nM
[36] = molecular target: Dual specificity mitogen-activated protein kinase kinase 7 (Homo sapiens) (UniProt O14733); settings: Compound concentration 1000.0 nM
[37] = molecular target: 5-hydroxytryptamine receptor 7 (Homo sapiens) (UniProt P34969); settings: Compound concentration 10.0 uM
Sequence of 5-hydroxytryptamine receptor 7 (Homo sapiens) (P34969 whole entry): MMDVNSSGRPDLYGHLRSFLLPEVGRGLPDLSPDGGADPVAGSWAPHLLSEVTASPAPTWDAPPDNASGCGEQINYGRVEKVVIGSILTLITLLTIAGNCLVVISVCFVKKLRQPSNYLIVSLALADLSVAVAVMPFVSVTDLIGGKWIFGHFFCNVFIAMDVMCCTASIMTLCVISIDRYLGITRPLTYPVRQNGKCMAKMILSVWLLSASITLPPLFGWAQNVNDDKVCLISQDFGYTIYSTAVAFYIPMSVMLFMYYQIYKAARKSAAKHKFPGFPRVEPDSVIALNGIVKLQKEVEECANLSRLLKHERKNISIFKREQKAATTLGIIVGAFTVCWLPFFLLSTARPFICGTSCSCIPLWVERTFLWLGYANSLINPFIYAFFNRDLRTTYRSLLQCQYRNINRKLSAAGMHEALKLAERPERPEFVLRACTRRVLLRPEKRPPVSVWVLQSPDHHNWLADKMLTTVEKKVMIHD

[38] = molecular target: Sigma non-opioid intracellular receptor 1 (Homo sapiens) (UniProt Q99720); settings: Compound concentration 10.0 uM

Question: What does the source list for `COc1ccc2cc(OCC3(C(=O)O)CN(C(=O)c4ccc(F)cc4)C3)ccc2c1` [PF-04418948]?
Answer: inhibition [1]: -10%; residual activity [2]: 88%; residual activity [3]: 90%; residual activity [4]: 84%; residual activity [5]: 79%; residual activity [6]: 84%; IC50 (Phosphodiesterase 3): 3.5 µM; inhibition (Phosphodiesterase 3; Compound concentration 10.0 uM): 78%; residual activity [7]: 74%; residual activity [8]: 90%; residual activity [9]: 97%; inhibition [10]: 8%; inhibition [11]: 5%; inhibition [12]: 14%; residual activity [13]: 89%; residual activity [14]: 94%; inhibition [15]: -8%; residual activity [16]: 81%; residual activity [17]: 97%; inhibition [18]: 3%; residual activity [19]: 88%; inhibition [20]: -1%; residual activity [21]: 89%; residual activity [22]: 72%; residual activity [23]: 83%; residual activity [24]: 91%; residual activity [25]: 96%; residual activity [26]: 82%; residual activity [27]: 98%; residual activity [28]: 93%; residual activity [29]: 79%; residual activity [30]: 87%; residual activity [31]: 87%; residual activity [32]: 74%; inhibition [33]: -6%; inhibition [34]: -1%; residual activity [35]: 90%; residual activity [36]: 79%; inhibition [37]: -9.26%

Question: Which inhibition [38] does the source give for `O=C(c1ccc(F)cc1)N1CC(COc2ccc(Br)cc2)(C(=O)O)C1` [PF-04475866] here?
Answer: 20.3%
